Active and inactive are the calls of the source.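 The calls were made as follows: active = maximal inhibition of USP17 at or above 30% in the confirmation dose-response, a value not among the printed readouts; inactive = the rest.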
biological target: Ubiquitin carboxyl-terminal hydrolase 17-like protein 5 (Homo sapiens) (UniProt A8MUK1); assay: ubiquitin-specific protease 17 inhibitors, concentration series, biochemical, verification of primary actives (AID 1645864); conditions: purified USP17, ubiquitin-rhodamine cleavage fluorescence, 3 h
Sequence (A8MUK1 whole entry, looked up): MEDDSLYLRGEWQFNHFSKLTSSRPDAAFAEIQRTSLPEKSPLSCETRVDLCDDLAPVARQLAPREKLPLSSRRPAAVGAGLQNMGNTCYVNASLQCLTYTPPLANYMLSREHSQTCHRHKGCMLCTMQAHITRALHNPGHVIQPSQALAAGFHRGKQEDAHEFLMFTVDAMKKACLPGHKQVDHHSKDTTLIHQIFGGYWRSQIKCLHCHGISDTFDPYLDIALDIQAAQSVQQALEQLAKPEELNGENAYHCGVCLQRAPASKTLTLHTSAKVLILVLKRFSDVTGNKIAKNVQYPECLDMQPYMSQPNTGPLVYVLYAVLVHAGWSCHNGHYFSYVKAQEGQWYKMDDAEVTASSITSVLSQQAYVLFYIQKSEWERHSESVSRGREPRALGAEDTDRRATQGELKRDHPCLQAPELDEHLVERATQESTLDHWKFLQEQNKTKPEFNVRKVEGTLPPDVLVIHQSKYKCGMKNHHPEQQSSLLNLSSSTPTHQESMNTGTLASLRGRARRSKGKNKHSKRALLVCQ

SMILES	IC50
CCCCn1c(=O)c(CCC(=O)OCC(=O)Nc2ccc3c(c2)OCCO3)nc2ccccc21	> 5 µM (inactive)
O=C(NCc1ccccc1Cl)c1ccc2cn[nH]c2c1	> 50 µM (inactive)
O=C(COc1ccc(S(=O)(=O)N2CCOCC2)cc1)N1CCC(Cc2ccccc2)CC1	> 50 µM (inactive)
COc1ccc(C(C(=O)NC2CCCCC2)N(C(=O)CCCC(=O)Nc2ccccn2)c2ccccc2C)cc1 (stereo not given)	22.5 µM
N#Cc1ccccc1COC(=O)c1ccc2ccccc2n1	> 50 µM (inactive)
COc1cccc(NC(=O)c2nnn(-c3ccccc3)n2)c1	> 50 µM (inactive)
O=C(CNC(=O)c1cc2ccccc2o1)Nc1ccc2c(c1)OCCO2	46 µM
O=C(NC1CCS(=O)(=O)C1)c1ccc(N2CCC(Cc3ccccc3)CC2)nn1 (stereo not given)	> 50 µM (inactive)
COc1ccc(S(=O)(=O)N2CCc3ccccc32)cc1C(=O)Nc1ccc2[nH]c(=O)[nH]c2c1	4.48 µM
COc1ccc(OCC(=O)Nc2ccc(C)c(OCc3cc(=O)n4ccccc4n3)c2)cc1	4.29 µM
COc1ccc(Cl)cc1-n1nnc(C(=O)N2CCc3ccccc3C2)c1C	> 50 µM (inactive)
CN(C)c1ccc(CCN2CCc3nc4cccnc4cc3C2)cc1	> 50 µM (inactive)
Cc1ccc(NC(=O)CCC(=O)Nc2ccc3nc(N4CCCCC4)cc(C)c3c2)c(Br)c1	49.7 µM
Cc1nc(Nc2c3ccccc3nc3ccccc23)sc1C	> 50 µM (inactive)
COc1ccc(-n2c(SCC(=O)c3ccc(F)cc3)nnc2-c2cccnc2)cc1	23.8 µM
N#Cc1cn(CC(=O)N2CCc3ccccc32)c2ccccc12	47.4 µM
CCOc1ccc(C2=NCCNC3=C2C(c2ccccc2)N(c2ccccc2)C3=O)cc1 (stereo not given)	> 50 µM (inactive)
O=C(CCSc1ccc(Cl)cc1)c1cccs1	17.1 µM
CC1CCN(c2cc(-n3cnc(C(=O)N4CCCCC4)c3)ncn2)CC1	> 50 µM (inactive)
Cc1cc2nc(-c3ccc(SCc4ccccn4)nc3)[nH]c2cc1C	31.3 µM
COc1ccc(NC(=O)c2nnc(C(=O)NCCN3CCCCCC3)s2)cc1	3.05 µM
Cc1cc2nc(/C=C/c3ccccc3)n(Cc3cccc(F)c3)c2cc1C	> 50 µM (inactive)
Cc1ccc(CN2CCCn3nc(C(=O)NCc4ccccc4C)cc3C2=O)cc1	40.1 µM
Cc1ccc(N=Cc2sc(O)c3ccccc23)c(C)c1	> 50 µM (inactive)
O=C(COc1cccc2ccc(N3CCC(Cc4ccccc4)CC3)nc12)NCc1ccc(F)cc1	21.1 µM

SMILES	IC50
Cc1ccccc1Cn1ccc2ccn(Cc3cccnc3)c2c1=O	> 50 µM (inactive)
CCOc1cc(N2CCOCC2)c(OCC)cc1NC(=O)c1cc(-c2ccncc2)nc2ccccc12	10.1 µM
O=c1ccc(-c2noc(Cc3cccc(Cl)c3)n2)c[nH]1	> 50 µM (inactive)
COc1ccc(-c2nc(C)c(C(=O)NCc3ccc(S(N)(=O)=O)cc3)s2)cc1	> 50 µM (inactive)
O=c1[nH]c(-c2ccccn2)nc2c1CCN(Cc1cnn(-c3ccccc3)c1)C2	> 50 µM (inactive)
Cc1cc(C)n2nc(CNc3cccc(Cl)c3)nc2n1	> 50 µM (inactive)
CSc1nc(Cc2ccc(Cl)cc2)nc2ccccc12	> 50 µM (inactive)
Cc1ccc2[nH]c(=O)c(CN(Cc3cccnc3)C(=O)c3cccc(Cl)c3)cc2c1	> 50 µM (inactive)
O=C(Nc1oc2ccccc2c(=O)c1-c1ccc2c(c1)OCO2)C1CCCCC1	30.1 µM
Nc1ccccc1SCc1noc(-c2cccs2)n1	> 50 µM (inactive)
COc1cccc(CNC(=O)c2ccc3c(c2)NC(=O)C2CCCN32)c1OC (stereo not given)	> 50 µM (inactive)
CN(C)CCc1cc2c(c3c1ccc1ccccc13)OCO2	> 50 µM (inactive)
COc1ccc(NC(=O)c2nnn(-c3ccccc3C)c2C)cc1OC	> 50 µM (inactive)
COCCN(C1CCN(CCc2ccc(Cl)cc2)CC1)S(=O)(=O)c1cccc2cccnc12	> 50 µM (inactive)
O=C(Nc1ccc(F)cc1)Nc1ccccc1OCc1cc(=O)n2ccccc2n1	28.7 µM
Cn1c2ccccc2c(=O)c2c(=O)n(Cc3ccccc3)c(-c3ccccc3F)nc21	0.127 µM
CCc1cc2c(=O)[nH]c(Cc3ccc(OC)cc3)nc2s1	22.5 µM
CCOc1ccc2cc3c(nc2c1)OC(=O)N(Cc1ccc(C)o1)C3	2.44 µM
Cc1ccc(C)c(CSC2=NCCN2C(=O)c2ccco2)c1	> 50 µM (inactive)
CCC1OC(O)(C(C)C(O)C(C)C2OC(=O)/C(C)=C/C(C)=CC(C)C(O)C(C)C/C(C)=C/C=C/C2OC)CC(OC(=O)/C=C/C(=O)NC2=C(O)CCC2=O)C1C (stereo not given)	> 50 µM (inactive)
c1ccc2c(-c3nc(C4CC4)no3)nnc(NCc3ccncc3)c2c1	38.7 µM
Cn1c(=O)[nH]c2nncnc2c1=O	7.23 µM
Cc1cc(C)c2cc(C(=O)NC3CCN(Cc4ccccc4)CC3)[nH]c2c1	14.7 µM
COc1cc(OC)c2c(c1)C(=O)C1=C(COC(C)(O)C1)C2=O (stereo not given)	3.44 µM
COc1ccc(CCNC(=O)CCCCn2c(=O)c3ccccc3n(Cc3cccc(Cl)c3)c2=O)cc1OC	35.3 µM

SMILES	IC50
Cc1cc(=O)n(C)c2c(O)c3c(cc12)c(C)cc(=O)n3C	0.155 µM
CNc1nc2c(c(=O)n1Cc1ccccc1)CN(C(=O)c1ccc(CN)cc1)CC2	28.3 µM
O=C(CSc1nncc2ccccc12)Nc1ccc2c(c1)OCO2	> 50 µM (inactive)
COc1ccccc1OCCNC(=O)c1cc(C2CC2)nc2c1cnn2C(C)C	> 50 µM (inactive)
Cc1ccc(-n2c(=O)c3ccccc3n(Cc3c(F)cccc3Cl)c2=O)cc1	3.57 µM
Cc1ccccc1-c1nnc(-c2ccc(C(=O)NCc3ccccc3F)cc2)o1	5.8 µM
Cc1ccc(OC(=O)c2cn(-c3ccccc3)nc2-c2cccnc2)cc1	> 50 µM (inactive)
CCOc1ccc(-c2ccc3nnc(SCC(=O)Nc4cccc(C(C)=O)c4)n3n2)cc1	4.26 µM
COc1ccc2nc(-c3ccc(NC(=O)c4cccc(OC)c4OC)cc3)cn2n1	2.13 µM
C=C1CCC2[C@](C)(CCC[C@]2(C)C(=O)OC)[C@H]1CCc1ccoc1CNC(C)C (stereo not given in full)	> 50 µM (inactive)
O=C(/C=C/c1ccc(F)cc1)N1CCc2ccccc2C1	37.3 µM
Fc1ccc(Oc2nc(CN3CCOCC3)nc3sc4c(c23)CCCC4)c(Cl)c1	> 50 µM (inactive)
Cc1c(-c2nnc(-c3ccccn3)o2)nnn1-c1cccc(Cl)c1	35.1 µM
Cc1ccc(/C=C/C(=O)Nc2ccc3c(c2)OCCO3)cc1	> 50 µM (inactive)
COCCNC(=O)c1ccnn1-c1ccc2ccc(-c3cccnc3)cn12	> 50 µM (inactive)
Cc1nc(N2CCCC2)ncc1C(=O)Nc1ccc(F)c(F)c1	32.3 µM
O=C(Cn1c(=O)n(-c2ccccc2)c(=O)c2ccc(C(=O)NCc3ccc4c(c3)OCO4)cc21)NCCC1=CCCCC1	16.9 µM
COc1ccc(NC(=O)Cn2cc(C(=O)c3ccc(F)cc3)c(=O)c3cc(C)ccc32)cc1	24 µM
O=C(CCCCn1c(=O)c2ccccc2n(CC(=O)Nc2ccc(F)c(Cl)c2)c1=O)NCc1ccco1	> 50 µM (inactive)
Cn1c(=O)/c(=C/c2ccccc2)[nH]c(=O)/c1=C/c1ccccc1	5.8 µM
O=C(NCc1ccc(F)cc1)C1CCCN(c2cnc3nccnc3c2)C1 (stereo not given)	> 50 µM (inactive)
COc1ccc(C(=O)CCN2CCOCC2)cc1[N+](=O)[O-]	> 50 µM (inactive)
Oc1ccc(-c2nc3ccc(Cl)cn3c2NC2CCCCC2)cc1	15.2 µM
O=C(CCCC(=O)c1ccccc1)Nc1ccc(F)cc1	29.7 µM
CCc1cccc(CC)c1NC(=O)COC(=O)c1cc2cccc(OC)c2oc1=O	4.93 µM

SMILES	IC50
COCC(=O)Nc1cc(F)c2nc(N3CCOCC3)ccc2c1	33.8 µM
C=C(NC(=O)C(=C)NC(=O)c1csc(-c2ccc3c(n2)-c2csc(n2)-c2csc(n2)C(C(C)C2CO2)NC(=O)C(Cc2ccc(O)cc2)NC(=O)c2csc(n2)C(C(O)c2ccccc2)NC(=O)c2nc(sc2C)C(CC(N)=O)NC(=O)c2csc-3n2)n1)C(=O)O (stereo not given)	26.7 µM
N#Cc1cccc(NC(=O)Cn2cccc(-c3nc(-c4ccccc4)no3)c2=O)c1	> 50 µM (inactive)
Cc1oc(C2CC2)cc1C(=O)N1CCC2(CC1)CC1(CO2)Nc2ccccc2-n2cccc21 (stereo not given)	> 50 µM (inactive)
O=C(COc1cccc2c1CCN(Cc1cccnc1)C2=O)Nc1ccc2c(c1)OCCO2	35.2 µM
Cc1cccc(NC(=O)Cn2c(=O)n(Cc3ccc(F)cc3)c(=O)c3sccc32)c1	5.8 µM
CC1OC2CC(O)C1(O)C1=C2C(O)=C(C(N)=O)C(=N)C1=O (stereo not given)	2.06 µM
Cc1cc(O)c2c3c(c(O)c4c(c13)O[C@@H](C)C4(C)C)C(=O)C2=O	24.5 µM
COc1cccc(-c2cc(C(=O)Nc3cc(C)n(Cc4ccc(Cl)cc4)n3)no2)c1	4.67 µM
COc1ccc(C(=O)Nc2ccc3c(c2)Sc2ncccc2C(=O)N3C)cn1	> 50 µM (inactive)
CCCC(=O)Nc1ccc(SCc2nnc(-c3ccccc3)o2)cc1	> 50 µM (inactive)
COc1ccc(C)cc1NC(=O)C1CC(=O)Nc2nc(SCc3ccccc3)nn21 (stereo not given)	18.9 µM
O=c1c(Nc2cccc(F)c2)nc2ccncc2n1Cc1ccccc1	12.5 µM
Cc1cc(C(=O)NC2(O)C(=O)c3ccccc3C2=O)n(C)n1	7.39 µM
CCC1=C(c2ccc(C)cc2)S(=O)(=O)NC1=NCC(=O)NC(C)c1ccccc1 (stereo not given)	25.2 µM
O=C(Nc1nc2c(s1)COCC2)c1cc(-c2ccco2)[nH]n1	> 50 µM (inactive)
COc1cccc2cc(C(=O)Nc3ccc4c(c3)OCCO4)oc12	> 50 µM (inactive)
O=C(Nc1cccc(-c2noc(C3CCC3)n2)c1)C1CC(=O)N(c2ccccc2)C1 (stereo not given)	14.1 µM
CC(C)c1ccc(/C=C/C(=O)N2CCc3ccccc3C2)cc1	21.1 µM
Cc1sc(NC(=O)CN2CCc3ccccc3C2)nc1-c1ccc2c(c1)CCN2C(=O)C1CCCCC1	> 50 µM (inactive)
CC(=O)c1ccc(NC(=O)c2nc3ccccc3nc2N2CCOCC2)cc1	> 50 µM (inactive)
CC(C)=CCCC1(C)OC2=C(C(=O)c3cc(O)cc(O)c3C2=O)[C@H]2C=C(C)CC[C@H]21 (stereo not given in full)	9.83 µM
O=C1CC(O)C(O)c2cccc(O)c21 (stereo not given)	9.86 µM
O=C(NCc1ccc(-c2nc3cnccc3o2)cc1)c1ccccc1Br	38.6 µM
COc1cc(C)c2c(=O)c3c(oc2c1)C(=O)c1c(O)c(OC)cc(O)c1C3=O	0.609 µM
